Key:
[1] = target: T1, CDK9 (Homo sapiens, UniProt P50750); assay: CDK protein degradation activity (Western blotting), CDK9; type: cell-based; conditions: MDA-MB-231 cells, 16 hours, Western blot
T1 construct: endogenous in cells; host or cells: MDA-MB-231
Method in brief: (§1)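 MDA-MB-231 cells were treated with compound at final concentrations of 100 nM, 1 μM and 10 μM, or DMSO vehicle, for 16 h. Lysates were resolved by SDS-PAGE and immunoblotted for CDK2, CDK9 and tubulin, with band intensities quantified densitometrically.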

[2] = target: T2, CDK2 (Homo sapiens, UniProt P24941); assay: CDK protein degradation activity (Western blotting), CDK2; type: cell-based; conditions: MDA-MB-231 cells, 16 hours, Western blot
T2 construct: endogenous in cells; host or cells: MDA-MB-231
Method in brief: as §1

T1 sequence (P50750 whole entry): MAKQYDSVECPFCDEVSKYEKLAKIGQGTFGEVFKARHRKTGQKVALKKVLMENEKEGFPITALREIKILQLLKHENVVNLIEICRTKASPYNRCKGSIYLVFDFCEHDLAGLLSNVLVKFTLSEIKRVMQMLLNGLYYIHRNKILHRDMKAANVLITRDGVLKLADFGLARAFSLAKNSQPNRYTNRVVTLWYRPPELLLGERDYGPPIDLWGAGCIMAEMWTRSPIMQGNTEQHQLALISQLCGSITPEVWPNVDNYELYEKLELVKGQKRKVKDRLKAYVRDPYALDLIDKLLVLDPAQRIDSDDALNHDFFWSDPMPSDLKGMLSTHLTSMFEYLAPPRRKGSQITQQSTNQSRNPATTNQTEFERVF

Compound	Enzyme degradation CDK9 (% remaining) @ 0.1 μM [1]	Enzyme degradation CDK9 (% remaining) @ 1 μM [1]	Enzyme degradation CDK9 (% remaining) @ 10 μM [1]	Enzyme degradation CDK2 (% remaining) @ 0.1 μM [2]	Enzyme degradation CDK2 (% remaining) @ 1 μM [2]	Enzyme degradation CDK2 (% remaining) @ 10 μM [2]
O=C1CC[C@H](N2C(=O)c3ccc(N4CC(C(=O)N5CCC(CN6CCN(c7ccc(Nc8ncnc9c8ncn9C8CC(NC(=O)c9cccc(Cl)n9)C8)cc7)CC6)CC5)C4)cc3C2=O)C(=O)N1 (stereo partly drawn) [Compound 451, 6-chloro-N-((1s,3s)-3-(6-((4-(4-((1-(1-(2-(2,6-dioxopiperidin-3-yl)-1,3-dioxoisoindolin-5-yl)azetidin-3-carbonyl)piperidin-4-yl)methyl)piperazin-1-yl)phenyl)amino)-9H-purin-9-yl)cyclobutyl)picolinamide]	0/0/0%	0/0/0%	0/0/0%	50%	30%	30%
O=C1CCC(N2C(=O)c3ccc(N4CCC(C(=O)N5CCC(CN6CCN(c7ccc(Nc8ncnc9c8ncn9[C@H]8C[C@@H](NC(=O)c9cccc(Cl)n9)C8)cc7)CC6)CC5)CC4)cc3C2=O)C(=O)N1 (stereo partly drawn) [Compound 452, 6-chloro-N-((1s,3s)-3-(6-((4-(4-((1-(1-(2-(2,6-dioxopiperidin-3-yl)-1,3-dioxoisoindolin-5-yl)piperidin-4-carbonyl)piperidin-4-yl)methyl)piperazin-1-yl)phenyl)amino)-9H-purin-9-yl)cyclobutyl)picolinamide]	0/0/0%	0/0/0%	0/0/0%	30/30/30%	30/30/30%	30/30/30%
O=C1CC[C@H](N2C(=O)c3cc(F)c(N4CCC(C(=O)N5CCC(CN6CCN(c7ccc(Nc8ncnc9c8ncn9C8CC(NC(=O)c9cccc(Cl)n9)C8)cc7)CC6)CC5)CC4)cc3C2=O)C(=O)N1 (stereo partly drawn) [Compound 453, 6-chloro-N-((1s,3s)-3-(6-((4-(4-((1-(1-(2-(2,6-dioxopiperidin-3-yl)-6-fluoro-1,3-dioxoisoindolin-5-yl)piperidin-4-carbonyl)piperidin-4-yl)methyl)piperazin-1-yl)phenyl)amino)-9H-purin-9-yl)cyclobutyl)picolinamide]	0/0/0%	0/0/0%	0/0/0%	20%	20%	30%

Other lines, results leading:

Enzyme degradation CDK9 (% remaining) @ 0.1 μM [1]	Enzyme degradation CDK9 (% remaining) @ 1 μM [1]	Enzyme degradation CDK9 (% remaining) @ 10 μM [1]	Enzyme degradation CDK2 (% remaining) @ 0.1 μM [2]	Enzyme degradation CDK2 (% remaining) @ 1 μM [2]	Enzyme degradation CDK2 (% remaining) @ 10 μM [2]	Compound
10/10/10%	10/10/10%	10/10/10%	50%	40%	40%	Cc1cccc(C(=O)NC2CC(n3cnc4c(Nc5ccc(N6CCN(CCC7CCN(C(=O)C8CCN(c9cc%10c(cc9F)C(=O)N([C@H]9CCC(=O)NC9=O)C%10=O)CC8)CC7)CC6)cc5)ncnc43)C2)n1 (stereo partly drawn) [Compound 449, N-((1s,3s)-3-(6-((4-(4-(2-(1-(1-(2-(2,6-dioxopiperidin-3-yl)-6-fluoro-1,3-dioxoisoindolin-5-yl)piperidin-4-carbonyl)piperidin-4-yl)ethyl)piperazin-1-yl)phenyl)amino)-9H-purin-9-yl)cyclobutyl)-6-methylpicolinamide]
0/0/0%	0/0/0%	0/0/0%	50/50/50%	50/50/50%	50/50/50%	Cc1cccc(C(=O)N[C@H]2C[C@@H](n3cnc4c(NCCC5CCN(CC6CCN(C(=O)C7CCN(c8cc9c(cc8F)C(=O)N(C8CCC(=O)NC8=O)C9=O)CC7)CC6)CC5)ncnc43)C2)n1 (stereo partly drawn) [Compound 450, N-((1s,3s)-3-(6-((2-(1-((1-(1-(2-(2,6-dioxopiperidin-3-yl)-6-fluoro-1,3-dioxoisoindolin-5-yl)piperidin-4-carbonyl)piperidin-4-yl)methyl)piperidin-4-yl)ethyl)amino)-9H-purin-9-yl)cyclobutyl)-6-methylpicolinamide]
